Test results published in patent US20260263651A1, “WOUND DRESSING” (UNIVERSITY OF SUNDERLAND, priority 2023, published 2026).

How the values were obtained:
Format in all cases: cell-based
Escherichia coli = assay: Microbiological evaluation of overnight bacteria suspensions, modified alginate wound dressing with absorbed substrate on agar; details: EC overnight culture, 24 h incubation at 37° C.
Method: (§1) ACTIVHEAL® simply A (10×20 cm) non-adhesive foam samples were provided by Advanced Medical Solutions Ltd. The wound dressings were cut into ~5-10×5-10 mm squares, using an ethanol washed pair of scissors. A maximum of 0.20 g of the material was added into 10 mL DI water, and the pH was adjusted to ~3 by the addition of 0.1 M aq. HCl solution. The solution was stirred for 10 mins at room temperature, followed by the addition of 0.33 g EDC •HCl (1.7 mmol) and the pH was maintained at ~3 by the addition of 0.1 M aq. HCl solution. The solution was stirred at room temperature for 10 mins followed by the addition of 0.88 g compound 8 which was dissolved in DMSO or DMF. The mixture was stirred at room temperature for 48 h. The wound dressings were filtered and were washed with ethanol. To ensure the full removal of any non-coupled amide (8), the foam samples were resuspended in ethanol, stirred for 10 mins and filtered, and this process was repeated until the amide (8) was not detectable from the filtrate (this could be maintained by TLC or HPLC evaluation). The samples were dried in a vacuum oven for 3-4 h.
(§2) The aqueous solution of 3a or 3b was prepared by the following: the desired amount of the enzymatic substrate (3.0 mg for 300 mg/L, 6.0 mg for 600 mg/L, 9.0 mg for 900 mg/L, 15.0 mg for 1500 mg/L, and 30.0 mg for 3000 mg/L) was weighed out on a 4 decimal place balance within ±0.3 mg error limit into a 10 mL volumetric flask and was adjusted to 10.0 mL with DI water. The solutions were absorbed into the foam samples and dried in a vacuum oven at 40° C. overnight.
(§3) To model fluid exudate from a chronic wound, the wound dressing made according to ‘Modification of ActivHeal® Alginate’, above, was placed into an agar plate and the test pathogen was smeared over the surface of the agar.
(§4) The enzymatic substrates were tested in 4 different concentrations (300, 600, 900 and 3000 mg/L) using DI water as a solvent, and the solutions were absorbed into the wound dressing samples, which were dried overnight under vacuum at 40° C.
(§5) Two Gram negative strains (Escherichia coli—EC and Pseudomonas aeruginosa—PSA) and a Gram positive bacteria (Staphylococcus aureus—SA) were evaluated against the dimethyl (3a) and the diethyl (3b) substituted substrate. The overnight cultures were directly smeared from LB broth onto Columbia blood agar without measuring the OD. The wound dressings with the enzymatic substrate absorbed were placed onto the agar and were incubated overnight (see FIGS. 2-7).

Pseudomonas aeruginosa [1] = assay: as above; details: PSA overnight culture, 24 h incubation at 37° C.
Method: as §1, §2, §3, §4, §5

Staphylococcus aureus = assay: as above; details: SA overnight culture, 24 h incubation at 37° C.
Method: as §1, §2, §3, §4, §5

Pseudomonas aeruginosa [2] = assay: Microbiological evaluation of standardised bacterial suspensions, modified wound dressing with absorbed substrate on agar; set-up: key to Observable colour change: − indicates no colour change; +− indicates relatively discernible blue colour change; + indicates a moderately strong blue colour change; ++ indicates a strong blue colour change
Method: as §1, §2
Bacterial strains were routinely cultured from working stocks in Tryptic Soy Broth (TSB) and incubated at 37° C. overnight with shaking at 150 RPM. Overnight cultures were centrifuged at 3000×g for 5 minutes, the supernatant discarded, and the pellet resuspended in 10 mL phosphate buffered saline (PBS). Bacterial inoculums were standardised by optical density at 600 nm on an Amersham Biosciences Ultrospec 10 spectrophotometer (Amersham Biosciences, Amersham, UK) to contain between 1 and 3×10^8 CFU/mL.
However, rapid evaluation of lower bacteria concentrations is essential for the desired clinical application. […] The solutions were absorbed into the wound dressing samples, which were dried overnight under vacuum at 40° C.
Two Gram negative strains (Escherichia coli—EC and Pseudomonas aeruginosa—PSA) and a Gram-positive bacterium (Staphylococcus aureus—SA) were evaluated. The bacteria were incubated overnight, centrifuged at 3000×g for 5 mins, the supernatant was discarded, and the residue pellets were resuspended in 10 mL PBS. The inoculums were standardised by measuring the optical density at 600 nm to assure a 1-3×10^8 CFU/mL. The standardised solutions were further diluted to prepare 1-3×10^6 and 1-3×10^4 CFU/mL suspension. 1×10^6 CFU would be an ideal breakpoint for a positive result, as this concentration coincides well with a level of colonisation that would likely go on to produce an infection.
100 μL bacterial suspensions were smeared over agar plates. Wound dressing samples were added to the top of the agar and were rolled over a few times (to ensure a full coverage and to ease the visibility of the colour change). The plates were incubated at 37° C., and the results were recorded after 24 h, after 48 h, after 72 h. The results are shown in Table 3-5; − indicates no colour change, +− indicates relatively discernible blue colour change, + indicates a moderately strong blue colour change and ++ indicates a strong blue colour change.

Compound: CC(C)C[C@H](N)C(=O)Nc1ccc(N(C)C)cc1.Cl [3a, (2S)-2-amino-N-[4-(dimethylamino)phenyl]-4-methyl-pentanamide hydrochloride]
- Observable colour change (Escherichia coli; substrate 300 mg/L): Light blue
- Observable colour change (Escherichia coli; substrate 600 mg/L): Light blue
- Observable colour change (Escherichia coli; substrate 900 mg/L): Blue
- Observable colour change (Escherichia coli; substrate 3000 mg/L): Dark blue
- Observable colour change (Pseudomonas aeruginosa [1]; substrate 300 mg/L): None
- Observable colour change (Pseudomonas aeruginosa [1]; substrate 600 mg/L): Light blue
- Observable colour change (Pseudomonas aeruginosa [1]; substrate 900 mg/L): Blue
- Observable colour change (Pseudomonas aeruginosa [1]; substrate 3000 mg/L): Blue
- Observable colour change (Staphylococcus aureus; substrate 300 mg/L): None
- Observable colour change (Staphylococcus aureus; substrate 600 mg/L): Pale blue
- Observable colour change (Staphylococcus aureus; substrate 900 mg/L): None
- Observable colour change (Staphylococcus aureus; substrate 3000 mg/L): Light blue
- Observable colour change (Pseudomonas aeruginosa [2]; PSA 10^4, substrate 300 mg/L, 24 h at 37° C.): −
- Observable colour change (Pseudomonas aeruginosa [2]; PSA 10^4, substrate 300 mg/L, 48 h at 37° C.): −
- Observable colour change (Pseudomonas aeruginosa [2]; PSA 10^4, substrate 300 mg/L, 72 h at 37° C.): +
- Observable colour change (Pseudomonas aeruginosa [2]; PSA 10^4, substrate 900 mg/L, 24 h at 37° C.): −
- Observable colour change (Pseudomonas aeruginosa [2]; PSA 10^4, substrate 900 mg/L, 48 h at 37° C.): +−
- Observable colour change (Pseudomonas aeruginosa [2]; PSA 10^4, substrate 900 mg/L, 72 h at 37° C.): ++
- Observable colour change (Pseudomonas aeruginosa [2]; PSA 10^4, substrate 1500 mg/L, 24 h at 37° C.): −
- Observable colour change (Pseudomonas aeruginosa [2]; PSA 10^4, substrate 1500 mg/L, 48 h at 37° C.): −
- Observable colour change (Pseudomonas aeruginosa [2]; PSA 10^4, substrate 1500 mg/L, 72 h at 37° C.): ++
- Observable colour change (Pseudomonas aeruginosa [2]; PSA 10^6, substrate 300 mg/L, 24 h at 37° C.): −
- Observable colour change (Pseudomonas aeruginosa [2]; PSA 10^6, substrate 300 mg/L, 48 h at 37° C.): −
- Observable colour change (Pseudomonas aeruginosa [2]; PSA 10^6, substrate 300 mg/L, 72 h at 37° C.): +
- Observable colour change (Pseudomonas aeruginosa [2]; PSA 10^6, substrate 900 mg/L, 24 h at 37° C.): −
- Observable colour change (Pseudomonas aeruginosa [2]; PSA 10^6, substrate 900 mg/L, 48 h at 37° C.): −
- Observable colour change (Pseudomonas aeruginosa [2]; PSA 10^6, substrate 900 mg/L, 72 h at 37° C.): ++
- Observable colour change (Pseudomonas aeruginosa [2]; PSA 10^6, substrate 1500 mg/L, 24 h at 37° C.): −
- Observable colour change (Pseudomonas aeruginosa [2]; PSA 10^6, substrate 1500 mg/L, 48 h at 37° C.): +−
- Observable colour change (Pseudomonas aeruginosa [2]; PSA 10^6, substrate 1500 mg/L, 72 h at 37° C.): +
- colour change (Pseudomonas aeruginosa [2]; PSA 10^8, 10^6 or 10^4 CFU, after 72 h, every tested substrate concentration): moderate or strong blue colour changes
- Observable colour change (Pseudomonas aeruginosa [2]; PSA 10^8, substrate 300 mg/L, 24 h at 37° C.): −
- Observable colour change (Pseudomonas aeruginosa [2]; PSA 10^8, substrate 300 mg/L, 48 h at 37° C.): −
- Observable colour change (Pseudomonas aeruginosa [2]; PSA 10^8, substrate 300 mg/L, 72 h at 37° C.): +
- Observable colour change (Pseudomonas aeruginosa [2]; PSA 10^8, substrate 900 mg/L, 24 h at 37° C.): −
- Observable colour change (Pseudomonas aeruginosa [2]; PSA 10^8, substrate 900 mg/L, 48 h at 37° C.): +
- Observable colour change (Pseudomonas aeruginosa [2]; PSA 10^8, substrate 900 mg/L, 72 h at 37° C.): ++
- Observable colour change (Pseudomonas aeruginosa [2]; PSA 10^8, substrate 1500 mg/L, 24 h at 37° C.): −
- Observable colour change (Pseudomonas aeruginosa [2]; PSA 10^8, substrate 1500 mg/L, 48 h at 37° C.): +
- Observable colour change (Pseudomonas aeruginosa [2]; PSA 10^8, substrate 1500 mg/L, 72 h at 37° C.): ++
- colour change (Pseudomonas aeruginosa [2]; PSA, substrate 900 or 1500 mg/L, printed in the 48 h paragraph): moderate or strong colour change
